Assays:
[1] = target: T1, Odorant binding protein 18 (OBP18) (Apis mellifera, UniProt A0ACM8Q9Q2); experiment: direct fluorescence titration of purified protein
T1 construct: recombinant mature protein
T1 sequence (A0ACM8Q9Q2 17-135): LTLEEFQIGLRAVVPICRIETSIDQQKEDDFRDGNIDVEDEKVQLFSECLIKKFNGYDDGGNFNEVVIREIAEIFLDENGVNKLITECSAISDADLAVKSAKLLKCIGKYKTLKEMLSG

[2] = target: T2, Odorant binding protein 16 (OBP16) (Apis mellifera, UniProt A0ACM8Q9Q1); experiment: direct fluorescence titration of purified protein
T2 construct: recombinant mature protein
T2 sequence (A0ACM8Q9Q1 17-135): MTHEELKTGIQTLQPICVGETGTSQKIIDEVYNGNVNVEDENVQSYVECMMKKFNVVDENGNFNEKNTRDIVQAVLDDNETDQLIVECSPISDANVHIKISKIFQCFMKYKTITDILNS

[3] = target: T3, OBP21 (Apis mellifera, UniProt A0ACM8Q9Q6); experiment: direct fluorescence titration of purified protein; type: binding
T3 construct: purified recombinant protein
T3 sequence (A0ACM8Q9Q6 17-135): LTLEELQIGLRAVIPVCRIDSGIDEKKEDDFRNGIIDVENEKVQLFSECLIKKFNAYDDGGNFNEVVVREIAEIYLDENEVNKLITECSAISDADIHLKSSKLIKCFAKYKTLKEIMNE

[4] = target: T3, OBP21; experiment: biochemical; parameters: competitive fluorescence displacement of 1-NPN (2 uM) from recombinant OBP, emission 380-450 nm
Experimental: (§1) The probe was excited at 337 nm and emission spectra were recorded between 380 and 450 nm. […] For determining binding constants, the intensity values corresponding to the maximum of fluorescence emission were plotted against free ligand concentrations. Bound ligand was evaluated from the values of fluorescence intensity assuming that the protein was 100% active, with a stoichiometry of 1:1 protein:ligand at saturation. The curves were linearized using Scatchard plots. Dissociation constants of the competitors were calculated from the corresponding IC50 values (concentrations of ligands halving the initial fluorescence value of 1-NPN), using the equation: KD = [IC50]/1 + [1-NPN]/K1-NPN, [1-NPN] being the free concentration of 1-NPN and K1-NPN being the dissociation constant of the complex Protein/1-NPN.  Figure 7 Potential ligands of OBPs. Twenty nine potential ligands were tested in a competitive binding assay for their binding to OBP16, OBP18 and OBP21. Each purified recombinant protein was mixed with the fluorescent probe N-phenyl-1-naphthylamine (1-NPN), both at the concentration of 2 μM in Tris buffer. Each mixture was titrated with a ligand and the displacement of the fluorescent probe from the complex was used to evaluate the relative dissociation constants, as described in the Methods section. Compounds with higher affinities are shown in the top panel, while compound with lower affinity are shown in the lower panel.

[5] = target: T3, OBP21; experiment: biochemical; parameters: competitive fluorescence displacement of 2 uM 1-NPN from purified recombinant OBP (2 uM), Tris pH 7.4; details: IC50 against 2 uM 1-NPN
Experimental: as §1

[6] = target: T2, Odorant binding protein 16 (OBP16); experiment: biochemical; parameters: competitive fluorescence displacement of 2 uM 1-NPN from purified recombinant OBP (2 uM), Tris pH 7.4; details: for IC50: IC50 against 2 uM 1-NPN; for Kd: KD calculated from IC50 of 1-NPN displacement
Experimental: as §1

[7] = target: T1, Odorant binding protein 18 (OBP18); experiment: biochemical; parameters: competitive fluorescence displacement of 2 uM 1-NPN from purified recombinant OBP (2 uM), Tris pH 7.4; details: for IC50: IC50 against 2 uM 1-NPN; for Kd: KD calculated from IC50 of 1-NPN displacement
Experimental: as §1

Structure (SMILES) | Kd [1] | Kd [2] | Kd [3] | Kd [4] | IC50 [5] | IC50 [6] | Kd [6] | IC50 [7] | Kd [7]
c1ccc(Nc2cccc3ccccc23)cc1 [1-NPN, N-phenyl-1-naphthylamine] | 1 to 5 µM | 1 to 5 µM | 1 to 5 µM |  |  |  |  |  | 
CCCCCC(C)=O [2-Heptanone] |  |  |  | 33.9 µM | 20 µM | 18 µM | 8.3 µM | 2.4 µM | 1.1 µM
COc1ccccc1/C=C/C=O [2-Methoxycinnamaldehyde] |  |  |  | 33.9 µM | 20 µM | 20 µM | 9.2 µM | 3.8 µM | 1.7 µM
Cc1ccccc1C=CC=O [2-Methylcinnamaldehyde] |  |  |  | 30.5 µM | 18 µM | 7 µM | 3.2 µM | 1.2 µM | 0.5 µM
OCCc1ccccc1 [2-Phenyl ethanol] |  |  |  |  | > 20 µM | > 20 µM |  | 2.5 µM | 1.1 µM
CC(=O)OCCc1ccccc1 [2-Phenylethyl acetate] |  |  |  | 30.5 µM | 18 µM | 8 µM | 3.7 µM | 2.5 µM | 1.1 µM
CC(C)CCCC(C)CCO (stereo not shown) [3,7-dimethyloctanol] |  |  |  | 3.7 µM | 2.2 µM | 0.5 µM | 0.2 µM | 0.2 µM | 0.1 µM
CC(C)CC(=O)O [3-Methylbutanoic acid] |  |  |  |  | > 20 µM | 11 µM | 5 µM | 2.5 µM | 1.1 µM
CC(=O)CCCCCCCC(=O)O [9-Ketodecanoic acid] |  |  |  | 6.8 µM | 4 µM | 3.5 µM | 1.6 µM | 1.5 µM | 0.7 µM
OCc1ccccc1 [Benzyl alcohol] |  |  |  |  | > 20 µM | 9.8 µM | 4.5 µM | 2.5 µM | 1.1 µM
O=C/C=C/c1ccccc1 [Cinnamaldehyde] |  |  |  |  | > 20 µM | 20 µM | 9.2 µM | 3.4 µM | 1.5 µM
CC(C)=CCC/C(C)=C/C=O [Citral] |  |  |  | 27.1 µM | 16 µM | 4.4 µM | 2 µM | 1.6 µM | 0.7 µM
CC(C)=CCCC(C)CC=O (stereo not shown) [Citronellal] |  |  |  | 13.6 µM | 8 µM | 3.5 µM | 1.6 µM | 2.5 µM | 1.1 µM
COc1cc(/C=C/CO)ccc1O [Coniferyl alcohol] |  |  |  |  | > 20 µM | 18 µM | 8.3 µM | 3.6 µM | 1.6 µM
CCCCCCCCCCCC(=O)O [Dodecanoic acid] |  |  |  | 16.9 µM | 10 µM | 0.7 µM | 0.3 µM | 0.3 µM | 0.1 µM
CCCCCCCCCCCCCCCC(=O)OCC [Ethyl palmitate] |  |  |  |  | > 20 µM | 1.1 µM | 0.5 µM | 0.2 µM | 0.1 µM
C=CCc1ccc(O)c(OC)c1 [Eugenol] |  |  |  |  | > 20 µM | > 20 µM |  | 2.3 µM | 1 µM
CC(=O)CC/C=C(\C)CCC=C(C)C [Geranylacetone] |  |  |  | 2.5 µM | 1.5 µM | 1.8 µM | 0.8 µM | 1.8 µM | 0.8 µM
COc1cc(CC(=O)O)ccc1O [Homovanillic acid] |  |  |  |  | > 20 µM | 18 µM | 8.3 µM | 3.2 µM | 1.4 µM
COc1cc(CCO)ccc1O [Homovanillic alcohol] |  |  |  |  | > 20 µM | 10.5 µM | 4.8 µM | 2.7 µM | 1.2 µM
C=CC(C)(O)CCC=C(C)C (stereo not shown) [Linalool] |  |  |  |  | > 20 µM | 18 µM | 8.3 µM | 3 µM | 1.3 µM
CCCCC/C=C\C/C=C\CCCCCCCC(=O)OC [Methyl linoleate] |  |  |  |  | > 20 µM | 2 µM | 0.9 µM | 0.1 µM | 0.04 µM
COC(=O)c1ccc(O)cc1 [Methyl p-hydroxybenzoate] |  |  |  | 8.5 µM | 5 µM | 2.5 µM | 1.1 µM | 1.9 µM | 0.8 µM
CCCCCCCCCCCCCCCC(=O)OC [Methyl palmitate] |  |  |  |  | > 20 µM | 0.9 µM | 0.4 µM | 0.2 µM | 0.1 µM
CCCCCCCCCCCCCCCCCC(=O)OC [Methyl stearate] |  |  |  |  | > 20 µM | 1 µM | 0.5 µM | 0.2 µM | 0.1 µM
CCCCCCCCC(=O)O [Nonanoic acid] |  |  |  |  | > 20 µM | 1.1 µM | 0.5 µM | 0.3 µM | 0.1 µM
CCCCCCCC/C=C\CCCCCCCC(N)=O [Oleamide] |  |  |  | 0.6 µM | 0.4 µM | 1 µM | 0.4 µM | 0.1 µM | 0.1 µM
CC(C)=CCC/C(C)=C/CO [geraniol] |  |  |  |  | > 20 µM | 1.1 µM | 0.5 µM | 0.3 µM | 0.1 µM
CC(=O)OC/C=C(\C)CCC=C(C)C [geranyl acetate] |  |  |  | 3.1 µM | 1.8 µM | 0.2 µM | 0.1 µM | 0.2 µM | 0.1 µM
CCCCCCCC/C=C\CCCCCCCC(=O)O [oleic acid] |  |  |  | 0.4 µM | 0.3 µM | 0.9 µM | 0.4 µM | 0.1 µM | 0.04 µM

— article PMC4342888, “A search for protein biomarkers links olfactory signal transduction to social immunity” (BMC Genomics, 2015)
